According to patent US11279712B2, “Macrocyclic compounds that inhibit MCL-1 protein” (AMGEN INC., priority 2017, dated 2022):
Like-named read-outs stand apart in the source and are kept apart here.

Experiments:
[1] = target: Mcl-1/Bim interaction (recombinant human Mcl-1 residues 171-327) (Homo sapiens (Human), UniProt Q07820); assay: Cell Free Mcl-1:Bim Affinity Assay (Mcl-1 HTRF); assay type: binding; conditions: TR-FRET, 0.1 nM Mcl-1(171-327), 0.05 nM biotin-Bim(51-76)
Protocol: Cell Free Mcl-1:Bim Affinity Assay (Mcl-1 HTRF)
The inhibition of the Mcl-1/Bim interaction was measured using a time-resolved fluorescence resonance energy transfer (TR-FRET) assay. The recombinant human Mcl-1 (C-terminally 6×His tagged Mcl-1 containing residues 171-327) was generated at Amgen Inc (Thousand Oaks, Calif.). A biotinylated peptide derived from human Bim (residues 51-76) was purchased from CPC Scientific (San Jose, Calif.). The TR-FRET assay was conducted in a 384-well white OptiPlate™ (PerkinElmer, Waltham, Mass.) in a total volume of 40 μL. The reaction mixture contained 0.1 nM Mcl-1(171-327), 0.05 nM biotin-Bim(51-76), 0.05 nM LANCES Eu-W1024 Anti-6×His (PerkinElmer), 0.072 nM Streptavidin-Xlent (Cisbio, Bedford, Mass.), and serially diluted test compounds in the binding buffer of 20 mM Hepes, pH 7.5, 150 mM NaCl, 0.016 mM Brij®35, and 1 mM dithiothreitol. Test compounds were pre-incubated with Mcl-1(171-327) and biotin-Bim (51-76) for 60 min before addition of the detection mixture (LANCE® Eu-W1024 Anti-6×His and Streptavidin-Xlent). The reaction plates were further incubated overnight and then were read on an Envision® multimode reader (PerkinElmer). Fluorescence signals were measured at 620 nm (40-nm bandwidth) and 665 nm (7.5-nm bandwidth) with a 60 μs delay after excitation at 320 nm (75-nm bandwidth). The signal ratio at 665/620 nm corresponded to the Mcl-1/Bim interaction and was used in all data analyses. The IC50 values of test compounds were determined from duplicate data by analyzing competition curves using a four-parameter sigmoidal model in GraphPad Prism (GraphPad Software, San Diego, Calif.) or in Genedata Screener® (Genedata, Basel, Switzerland).

[2] = test system: OPM-2 human multiple myeloma cell line; assay: Cell Viability Assay (OPM-2 10 FBS); assay type: cell-based; conditions: OPM-2 cells, CellTiter-Glo, read-out: OPM-2 10% FBS IC50 IP
Protocol: Cell Viability Assay (OPM-2 10 FBS)
The human multiple myeloma cell line, OPM-2, was cultured in complete growth medium containing RPMI 1640 and 10% fetal bovine serum (FBS). Cells were seeded into 384-well plates at 3000 cells/well density in complete growth medium containing 10% FBS, and incubated for 16 h with serially diluted test compounds in a 37° C. incubator with 5% CO2. Cell viability was tested using CellTiter-Glo® assay (Promega, Madison, Wis.) according to the manufacturer recommendations. Luminescence was determined using an EnVision® Multilabel plate reader 25 min after the addition of detection reagent. IC50 values were then calculated with Xlfit using a logistical 4-parameter fit model in GraphPad Prism (GraphPad Software, San Diego, Calif.) or in Genedata Screener® (Genedata, Basel, Switzerland).

Mcl-1/Bim interaction (recombinant human Mcl-1 residues 171-327), sequence (Q07820 171-327): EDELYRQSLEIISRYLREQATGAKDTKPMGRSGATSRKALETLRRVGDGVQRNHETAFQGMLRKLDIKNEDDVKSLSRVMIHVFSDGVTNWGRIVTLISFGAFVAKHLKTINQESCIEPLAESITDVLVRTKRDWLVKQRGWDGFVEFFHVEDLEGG

Row | IC50 [1] | IC50 ([2]; Homo sapiens, OPM-2, 16 h) | IC50 ([2]; 16 h) | SMILES
1 | 0.246 nM | 223 nM |  | C[C@@H]1[C@@H](C)CCC[C@H](C(=O)N2CCC2)[C@@H]2CC[C@H]2CN2C[C@@]3(CCCc4cc(Cl)ccc43)COc3ccc(cc32)C(=O)NS1(=O)=O (single isomer, unassigned) [Example 9]
2 | 0.291 nM | 227 nM |  | C[C@@H]1[C@@H](C)CCC[C@H](CN2CCN3CCOC[C@@H]3C2)[C@@H]2CC[C@H]2CN2C[C@@]3(CCCc4cc(Cl)ccc43)COc3ccc(cc32)C(=O)NS1(=O)=O (single isomer, unassigned) [Example 10]
3 | 0.602 nM |  | 417 nM | C[C@@H]1[C@@H](C)CCC[C@H](CN2CCN(C)CC2)[C@@H]2CC[C@H]2CN2C[C@@]3(CCCc4cc(Cl)ccc43)COc3ccc(cc32)C(=O)NS1(=O)=O (single isomer, unassigned) [Example 34]
4 | 0.83 nM |  | 356 nM | C[C@@H]1[C@@H](C)CCC[C@H](CN2CC(C)(N(C)C)C2)[C@@H]2CC[C@H]2CN2C[C@@]3(CCCc4cc(Cl)ccc43)COc3ccc(cc32)C(=O)NS1(=O)=O (stereo in doubt) [Example 27]
5 | 0.552 nM |  | 4230 nM | C[C@@H]1[C@@H](C)CCC[C@H]([C@H](O)C2CCN(C)CC2)[C@@H]2CC[C@H]2CN2C[C@@]3(CCCc4cc(Cl)ccc43)COc3ccc(cc32)C(=O)NS1(=O)=O (single isomer, unassigned) [Example 83]
6 | 0.517 nM | 525 nM |  | C[C@@H]1[C@@H](C)CCC[C@H](C(=O)N2CC(F)(F)C2)[C@@H]2CC[C@H]2CN2C[C@@]3(CCCc4cc(Cl)ccc43)COc3ccc(cc32)C(=O)NS1(=O)=O (single isomer, unassigned) [Example 38]
7 | 0.252 nM |  | 329 nM | CC(=O)N1CCN2CCN(C[C@H]3CCC[C@H](C)[C@@H](C)S(=O)(=O)NC(=O)c4ccc5c(c4)N(C[C@@H]4CC[C@@H]34)C[C@@]3(CCCc4cc(Cl)ccc43)CO5)C[C@H]2C1 (stereo in doubt) [Example 25]
8 | 0.493 nM |  | 380 nM | C[C@@H]1[C@@H](C)CCC[C@H](CN2CCN3CCOC[C@@H]3C2)[C@@H]2CC[C@H]2CN2C[C@@]3(CCCc4cc(Cl)ccc43)COc3ccc(cc32)C(=O)NS1(=O)=O (stereo in doubt) [Example 32]
9 | 1.05 nM |  | 1670 nM | C[C@@H]1[C@@H](C)CCC[C@H](CN2CCOCC2)[C@@H]2CC[C@H]2CN2C[C@@]3(CCCc4cc(Cl)ccc43)COc3ccc(cc32)C(=O)NS1(=O)=O (single isomer, unassigned) [Example 67]
10 | 0.05 nM |  | 421 nM | CC(=O)N1CCN2CCN(C[C@H]3CCC[C@H](C)[C@@H](C)S(=O)(=O)NC(=O)c4ccc5c(c4)N(C[C@@H]4CC[C@@H]34)C[C@@]3(CCCc4cc(Cl)ccc43)CO5)C[C@H]2C1 (single isomer, unassigned) [Example 35]
11 | 0.604 nM | 1170 nM |  | COCCNC(=O)[C@@H]1CCC[C@H](C)[C@@H](C)S(=O)(=O)NC(=O)c2ccc3c(c2)N(C[C@@H]2CC[C@H]21)C[C@@]1(CCCc2cc(Cl)ccc21)CO3 (single isomer, unassigned) [Example 57]
12 | 0.212 nM |  | 172 nM | CC(=O)N1CCN2CCN(C[C@H]3CCC[C@H](C)[C@@H](C)S(=O)(=O)NC(=O)c4ccc5c(c4)N(C[C@@H]4CC[C@@H]34)C[C@@]3(CCCc4cc(Cl)ccc43)CO5)C[C@H]2C1 (single isomer, unassigned) [Example 4]
13 | 0.359 nM |  | 1950 nM | CC[C@@H]1CCCC[C@H](CO)[C@@H]2CC[C@H]2CN2C[C@@]3(CCCc4cc(Cl)ccc43)COc3ccc(cc32)C(=O)NS1(=O)=O (single isomer, unassigned) [Example 71]
14 | 0.261 nM |  | 376 nM | C[C@@H]1[C@@H](C)CCC[C@H](CN2CCN3CCOC[C@H]3C2)[C@@H]2CC[C@H]2CN2C[C@@]3(CCCc4cc(Cl)ccc43)COc3ccc(cc32)C(=O)NS1(=O)=O (single isomer, unassigned) [Example 31]
15 | 0.281 nM |  | 1410 nM | CC[C@H](O)[C@H]1/C=C/C[C@H](C)[C@@H](C)S(=O)(=O)NC(=O)c2ccc3c(c2)N(C[C@@H]2CC[C@H]21)C[C@@]1(CCCc2cc(Cl)ccc21)CO3 (single isomer, unassigned) [Example 61]
16 | 0.808 nM |  | 2440 nM | CC[C@@H](O)[C@@H]1/C=C/C[C@H](C)[C@@H](C)S(=O)(=O)NC(=O)c2ccc3c(c2)N(C[C@@H]2CC[C@H]21)C[C@@]1(CCCc2cc(Cl)ccc21)CO3 (single isomer, unassigned) [Example 75]
17 | 0.222 nM |  | 936 nM | C[C@H]1CCC[C@H](CO)[C@@H]2CC[C@H]2CN2C[C@@]3(CCCc4cc(Cl)ccc43)COc3ccc(cc32)C(=O)NS(=O)(=O)C1 (single isomer, unassigned) [Example 51]
18 | 0.938 nM |  | 1670 nM | C[C@@H]1[C@@H](C)CCC[C@H]([C@H](O)C2CCN(C)CC2)[C@@H]2CC[C@H]2CN2C[C@@]3(CCCc4cc(Cl)ccc43)COc3ccc(cc32)C(=O)NS1(=O)=O (single isomer, unassigned) [Example 68]
19 | 0.772 nM |  | 3650 nM | C[C@H]1CCC[C@H](CO)[C@@H]2CC[C@H]2CN2C[C@@]3(CCCc4cc(Cl)ccc43)COc3ccc(cc32)C(=O)NS(=O)(=O)C1 (single isomer, unassigned) [Example 82]
20 | 0.881 nM | 284 nM |  | C[C@@H]1[C@@H](C)CCC[C@H](CN2CC(C)(N(C)C)C2)[C@@H]2CC[C@H]2CN2C[C@@]3(CCCc4cc(Cl)ccc43)COc3ccc(cc32)C(=O)NS1(=O)=O (single isomer, unassigned) [Example 17]
21 | 0.516 nM |  | 370 nM | C[C@@H]1[C@@H](C)CCC[C@H](CN2CCN3CCN(S(C)(=O)=O)C[C@@H]3C2)[C@@H]2CC[C@H]2CN2C[C@@]3(CCCc4cc(Cl)ccc43)COc3ccc(cc32)C(=O)NS1(=O)=O (stereo in doubt) [Example 30]
22 | 0.849 nM |  | 1990 nM | C[C@H]([C@H]1CCC[C@H](C)[C@@H](C)S(=O)(=O)NC(=O)c2ccc3c(c2)N(C[C@@H]2CC[C@H]21)C[C@@]1(CCCc2cc(Cl)ccc21)CO3)N1CCOCC1 (single isomer, unassigned) [Example 72]
23 | 0.921 nM |  | 1320 nM | COCC[C@@H]1[C@@H](C)CCC[C@H](CO)[C@@H]2CC[C@H]2CN2C[C@@]3(CCCc4cc(Cl)ccc43)COc3ccc(cc32)C(=O)NS1(=O)=O (single isomer, unassigned) [Example 59]
24 | 0.829 nM |  | 535 nM | COCCN1CCN(C[C@H]2CCC[C@H](C)[C@@H](C)S(=O)(=O)NC(=O)c3ccc4c(c3)N(C[C@@H]3CC[C@@H]23)C[C@@]2(CCCc3cc(Cl)ccc32)CO4)CC1 (single isomer, unassigned) [Example 39]
25 | 0.377 nM |  | 778 nM | CC[C@@H](O)[C@@H]1/C=C/C[C@H](C)[C@@H](C)S(=O)(=O)NC(=O)c2ccc3c(c2)N(C[C@@H]2CC[C@H]21)C[C@@]1(CCCc2cc(Cl)ccc21)CO3 (single isomer, unassigned) [Example 49]

Row | SMILES | IC50 [1] | IC50 ([2]; Homo sapiens, OPM-2, 16 h) | IC50 ([2]; 16 h)
26 | C[C@@H]1[C@@H](C)CCC[C@H](CO)[C@@H]2CC[C@H]2CN2C[C@@]3(CCCc4cc(Cl)ccc43)COc3ccc(cc32)C(=O)NS1(=O)=O (single isomer, unassigned) [Example 63] | 0.997 nM |  | 1460 nM
27 | C[C@@H]1[C@@H](C)CCC[C@H](CN2CCN3CCN(C)C[C@@H]3C2)[C@@H]2CC[C@H]2CN2C[C@@]3(CCCc4cc(Cl)ccc43)COc3ccc(cc32)C(=O)NS1(=O)=O (single isomer, unassigned) [Example 6] | 0.353 nM |  | 177 nM
28 | C[C@@H]1[C@@H](C)CCC[C@H]([C@@H](C)O)[C@@H]2CC[C@H]2CN2C[C@@]3(CCCc4cc(Cl)ccc43)COc3ccc(cc32)C(=O)NS1(=O)=O (single isomer, unassigned) [Example 58] | 0.995 nM |  | 1230 nM
29 | C[C@@H]1[C@@H](C)CCC[C@H](CN2CCN3CCN(C)C[C@@H]3C2)[C@@H]2CC[C@H]2CN2C[C@@]3(CCCc4cc(Cl)ccc43)COc3ccc(cc32)C(=O)NS1(=O)=O (single isomer, unassigned) [Example 1] | 0.225 nM |  | 117 nM
